This data set can be described thus: ABTS degradation, comparison with tocopherol after dark or UV exposure. To be noted: colloids 0.5 g/L, tocopherol 1.5 g/L. On the procedure: The protocol for preparing the solutions as in point 4.1/ was repeated with a concentration of ZnO/3-hydroxybenzaldehyde colloids of 0.5 g/L and a concentration of tocopherol of 1.5 g/L.
The solutions obtained were separated: a fraction of the solution being placed in the dark, and the remaining fraction being placed under UV irradiation. After 30 minutes of exposure (to the dark or to UV), 30 μL of a concentrated solution of ABTS (7 mM) was added, and the absorption was then measured.

Consider tocopherol, for which the ABTS degradation capacity is, setting by setting: (after 30 minutes of exposure to UV) 22%; (after 30 minutes of exposure to the dark) 22%.

Source of the values: US11904037B2, “Enzymatic molecule mimicking anti-oxidant activity” (BIONUCLEI, priority 2018, dated 2024).
